# Test results taken from patent publication US4758557A, “Cephalosporin derivatives and bactericides containing the same” (Meiji Seika Kaisha, Ltd., priority 1985, dated 1988).
# Legend:
# Test in all cases: MIC in agar plate culture-dilution assay
# Assay type in all cases: cell-based
# [1] = test system: Staphylococcus aureus 209P JC-1; conditions: Staphylococcus aureus 209P JC-1; agar plate culture-dilution; read-out: MIC
# Description: (§1) The compounds of the formula (I) and salts thereof of the present invention are new, and have high and broad antibacterial activity capable of inhibiting the growth of pathogenic microorganisms of a broad range including gram-positive and gram-negative bacteria. In order to show the usability of the compounds of the formula (I), the antibacterial activity of some typical compounds of the formula (I) was actually measured, and the results are given in the following Table-1.
# (§2) MIC in agar plate culture-dilution assay (Y/ml)
# [2] = test system: Staphylococcus aureus Smith (1); conditions: Staphylococcus aureus Smith (1); agar plate culture-dilution; read-out: MIC
# Description: as §1, §2
# Proteus rettgeri GN-624 = conditions: Providencia rettgeri, GN624; Proteus rettgeri GN-624; agar plate culture-dilution; read-out: MIC
# Description: as §1, §2
# [3] = test system: Pseudomonas maltophilia M-0627; conditions: Stenotrophomonas maltophilia, M0627; Pseudomonas maltophilia M-0627; agar plate culture-dilution; read-out: MIC
# Description: as §1, §2
# Proteus vulgaris GN-76 = conditions: GN76; Proteus vulgaris GN-76; agar plate culture-dilution; read-out: MIC
# Description: as §1, §2
# [4] = test system: Pseudomonas aeruginosa E-2; conditions: E2; Pseudomonas aeruginosa E-2; agar plate culture-dilution; read-out: MIC
# Description: as §1, §2
# [5] = test system: Bacillus subtilis ATCC 6633; conditions: ATCC6633; Bacillus subtilis ATCC 6633; agar plate culture-dilution; read-out: MIC
# Description: as §1, §2
# [6] = test system: Pseudomonas aeruginosa IAM-1007; conditions: IAM1007; Pseudomonas aeruginosa IAM-1007; agar plate culture-dilution; read-out: MIC
# Description: as §1, §2
# [7] = test system: Pseudomonas aeruginosa M-0148; conditions: M0148; Pseudomonas aeruginosa M-0148; agar plate culture-dilution; read-out: MIC
# Description: as §1, §2
# [8] = test system: Klebsiella pneumoniae GN-69; conditions: GN69; Klebsiella pneumoniae GN-69; agar plate culture-dilution; read-out: MIC
# Description: as §1, §2
# [9] = test system: Citrobacter freundii GN-346; conditions: GN346; Citrobacter freundii GN-346; agar plate culture-dilution; read-out: MIC
# Description: as §1, §2
# [10] = test system: Escherichia coli NIHJ JC-2; conditions: NIHJJC2
# Description: as §1, §2
# [11] = test system: Enterobacter cloacae GN-7471; conditions: GN7471; Enterobacter cloacae GN-7471; agar plate culture-dilution; read-out: MIC
# Description: as §1, §2
# [12] = test system: Serratia marcescens No. 1; conditions: Serratia marcescens No. 1; agar plate culture-dilution; read-out: MIC
# Description: as §1, §2
Structure (SMILES),MIC [1] [µg/mL],MIC [2] [µg/mL],MIC (Proteus rettgeri GN-624) [µg/mL],MIC [3] [µg/mL],MIC (Proteus vulgaris GN-76) [µg/mL],MIC [4] [µg/mL],MIC [5] [µg/mL],MIC [6] [µg/mL],MIC [7] [µg/mL],MIC [8] [µg/mL],MIC [9] [µg/mL],MIC [10] [µg/mL],MIC [11] [µg/mL],MIC [12] [µg/mL]
"C[n+]1ccc(SCC2=C(C(=O)[O-])N3C(=O)[C@@H](NC(=O)C(NC(=O)c4cc(=O)c(O)c[nH]4)c4csc(N)n4)[C@H]3SC2)cc1 (stereo partly drawn) [A, reference compound]",0.78,0.78,1.56,50,0.78,0.2,1.56,6.25,50,0.2,0.39,0.1,3.13,0.2
"Cn1c(SCC2=C(C(=O)O)N3C(=O)[C@@H](NC(=O)C(NC(=O)c4cc(=O)c(O)cn4O)c4csc(N)n4)[C@H]3SC2)nnc(O)c1=O (stereo partly drawn) [Example 22, (6R,7R)7-[(RS)2-(2-Aminothaizol-4-yl)-2-(1,5-dihydroxy-4-pyridone-2-carboxamido)acetamido]-3-(4,5-dihydro-4-methyl-5-oxo-6-hydroxy-1,2,4-triazin-3-yl)thiomethyl-ceph-3-em-4-carboxylic acid]",3.13,3.13,0.2,1.56,0.1,0.1,3.13,0.39,0.39,0.05,0.39,0.05,0.78,0.2
"Nc1nc(C(NC(=O)c2cc(=O)c(O)cn2O)C(=O)N[C@@H]2C(=O)N3C(C(=O)O)=C(CSc4cnns4)CS[C@H]23)cs1 (stereo partly drawn) [Example 25, (6R,7R)7-[(RS)2-(2-Aminothiazol-4-yl)-2-(1,5-dihydroxy-4-pyridone-2-carboxamido)acetamido]-3-(1,2,3-thiadiazol-5-yl)thiomethyl-ceph-3-em-4-carboxylic acid]",3.13,6.25,3.13,1.56,0.1,0.05,3.13,0.1,0.2,0.05,0.78,0.05,6.25,0.2
